Laboratory results: PMC5387044, “Analogs of the Frog-skin Antimicrobial Peptide Temporin 1Tb Exhibit a Wider Spectrum of Activity and a Stronger Antibiofilm Potential as Compared to the Parental Peptide” (Frontiers in Chemistry, 2017)
Marks after values point to notes of the source that are not given here. No end group written: not given here.

Legend:
[1] = test system: P. aeruginosa ATCC 27853; type: cell-based, Pseudomonas aeruginosa; details: pH 7.4
[2] = in vitro; details: human
[3] = test system: S. aureus ATCC 33591; type: cell-based, Staphylococcus aureus; details: pH 7.4
[4] = test system: S. aureus ATCC 33591; details: ATCC 33591, 24 h, pH 7.4
[5] = in vitro; details: human; remark: listed apart in the source
[6] = test system: P. aeruginosa ATCC 27853 biofilm formation
[7] = test system: S. epidermidis ATCC 35984; details: ATCC 35984, 24 h, pH 7.4
[8] = test system: human red blood cells (RBCs); details: concentrations up to 96 μM, 1 h, 37°C
Protocol: Hemolytic activity of TB and its analogs was tested against human red blood cells (RBCs) as previously described (Tavanti et al., [2011]). Briefly, peripheral blood obtained from healthy donors was centrifuged (1,000 × g for 10 min, 4°C) and washed three times with PBS (Euroclone, Milan, Italy). A suspension of RBCs (4%, v/v) was mixed with various concentrations of the peptides (from 12 to 96 μM) into a round-bottom polystyrene 96-well microplate (Corning Costar). RBCs suspended in PBS alone were used as negative control (0% hemolysis), while cells lysed with 0.1% Triton X-100 were taken as positive control (100% hemolysis). The microplate was incubated for 1 h at 37°C and then centrifuged at 1,000 × g for 20 min, 4°C. Supernatants were transferred to a new plate and the optical density at 450 nm (OD450) was measured by means of a microplate reader. The hemolytic activity was quantified according to the following formula: hemolysis (%) = [(OD peptide – OD negative control)/(OD positive control – OD negative control)] × 100.
The hemolytic activity was evaluated by the spectrophotometric determination of hemoglobin released from erythrocytes. PBS (0% hemolysis) and Triton X-100 (100% hemolysis) were used as controls. Hemolysis values ≤ 10% (dashed line) are considered to be non-hemolytic (Amin and Dannenfelser, [2006]). […]

[9] = test system: P. aeruginosa ATCC 27853; details: ATCC 27853, 24 h, pH 7.4
[10] = test system: preformed biofilms of S. aureus ATCC 33591; assay: Biofilm treatment assay on preformed (24-h old) biofilms, CFU counting, alone and with EDTA; type: cell-based, Staphylococcus aureus; details: concentrations up to 120 μM, CFU counting
Protocol: The activity of TB, TB_L1FK, and TB_KKG6A against preformed (24-h old) biofilms of S. aureus and P. aeruginosa was also investigated. Briefly, biofilms were allowed to form for 24 h in flat-bottom 96-well microplates in the absence of antimicrobial compounds. Established biofilms were then washed three times with PBS in order to remove non-adherent cells and incubated in fresh BPM with different concentrations of the three peptides (from 15 to 120 μM). After 24 h of incubation, the viability of biofilm-associated cells was evaluated by CFU counting. For this purpose, biofilms were washed three times with PBS and bacterial cells were detached from the surface of the wells with a pipette tip, vigorously vortexed and plated in serial dilutions on TSA.
TB_L1FK and TB_KKG6A were combined with EDTA in order to enhance their activity against preformed biofilms of S. aureus and P. aeruginosa. […] Following incubation, the antibiofilm effect was evaluated in terms of number of biofilm-associated viable cells as previously described.
Figure 4 Activity of TB_L1FK and TB_KKG6A, used alone and in combination with EDTA, against preformed (24-h old) biofilms of S. aureus ATCC 33591 (A,B) and P. aeruginosa ATCC 27853 (C,D). The antibiofilm activity of the peptides, EDTA and the peptide-EDTA combinations was evaluated by CFU counting after 24 h of incubation. […]

[11] = test system: K. pneumoniae ATCC BAA-1706; details: ATCC BAA-1706, 24 h, pH 7.4

**Q.** Which results are given for LLPIVGNLLKSLL-NH2 [TB, Temporin 1Tb]?
**A.** Time to bactericidal effect [1]: 15 min; viability [2]: ~90%; Time to bactericidal effect (reduction of at least 3 Log10 in viable bacteria) [3]: approximately 90 min; MBC [4]: 12^a μM; viability [5]: ~90%; Inhibitory activity on forming biofilms [6]: no inhibitory activity; MBC [7]: 6 µM; Hemolytic effect [8]: no hemolytic effect; MBC [9]: 48 µM; Antibiofilm activity on preformed biofilms [10]: did not exert a considerable antibiofilm activity; MBC [11]: 48 µM
